In patent US9586961B2, “Homopiperazine derivatives as protein tyrosine kinase inhibitors and pharmaceutical use thereof” (LEO PHARMA A/S, priority 2010, dated 2017):
pEC50: −log10 of the molar value.

Assays:
Format in all cases: biochemical
JAK1 = target: T1, JAK1 (Homo sapiens, UniProt P23458); test: JAK1 kinase assay (HTRF, inhibition of phosphorylation of a synthetic peptide); settings: catalytic domain aa 850-1154, GST-tag; 7 μM ATP (Km); read-out: JAK1 kinase inhibitory activity (EC50)
T1 construct: JAK1 (aa 850-1154) and TYK2 (aa 871-1187) are expressed with an N-terminally fused GST-tag; GST (N); purchased Carna Biosciences, Inc; host or cells: baculovirus expression system
T1 sequence (P23458 850-1154): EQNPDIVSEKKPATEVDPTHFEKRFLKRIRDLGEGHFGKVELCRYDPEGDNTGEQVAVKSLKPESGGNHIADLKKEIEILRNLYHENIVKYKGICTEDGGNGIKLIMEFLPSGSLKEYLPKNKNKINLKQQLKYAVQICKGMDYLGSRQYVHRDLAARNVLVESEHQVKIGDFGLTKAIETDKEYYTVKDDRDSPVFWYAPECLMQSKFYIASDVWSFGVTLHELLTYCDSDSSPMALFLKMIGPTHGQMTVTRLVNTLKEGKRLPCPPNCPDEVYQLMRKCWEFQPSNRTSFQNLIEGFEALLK
Procedure, shortened: (§1)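 Baculovirus-expressed human catalytic domains (GST-JAK1, GST-TYK2, His-JAK2, His-JAK3) phosphorylated 1 μM TK substrate-biotin at ATP Km (JAK1 7 μM, JAK2 4 μM, JAK3 2 μM, TYK2 13 μM) in pH 7.0 Hepes for 20-30 min at RT, 0.75% DMSO. EDTA stop, then overnight streptavidin-XL665/cryptate-antibody detection and HTRF read.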

JAK2 = target: T2, JAK2 (Homo sapiens, UniProt O60674); test: JAK2 kinase assay (HTRF, inhibition of phosphorylation of a synthetic peptide); settings: catalytic domain, His-tag; 4 μM ATP (Km); read-out: JAK2 kinase inhibitory activity (EC50)
T2 construct: All four purified enzymes contain only the catalytic domain; His (N); purchased Carna Biosciences, Inc; host or cells: baculovirus expression system
T2 sequence (O60674 849-1124 limits assumed): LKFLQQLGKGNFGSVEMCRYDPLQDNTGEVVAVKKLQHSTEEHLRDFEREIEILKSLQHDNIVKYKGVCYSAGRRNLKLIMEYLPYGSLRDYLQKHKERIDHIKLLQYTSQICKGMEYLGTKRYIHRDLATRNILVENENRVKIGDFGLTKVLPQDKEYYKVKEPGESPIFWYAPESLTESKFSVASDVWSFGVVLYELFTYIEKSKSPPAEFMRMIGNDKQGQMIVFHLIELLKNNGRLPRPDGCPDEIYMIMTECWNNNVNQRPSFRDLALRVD
Procedure, shortened: as §1

JAK3 = target: T3, JAK3 (Homo sapiens, UniProt P52333); test: JAK3 kinase assay (HTRF, inhibition of phosphorylation of a synthetic peptide); settings: catalytic domain, His-tag; 2 μM ATP (Km); read-out: JAK3 kinase inhibitory activity (EC50)
T3 construct: All four purified enzymes contain only the catalytic domain; His (N); purchased Carna Biosciences, Inc; host or cells: baculovirus expression system
T3 sequence (P52333 822-1111 limits assumed): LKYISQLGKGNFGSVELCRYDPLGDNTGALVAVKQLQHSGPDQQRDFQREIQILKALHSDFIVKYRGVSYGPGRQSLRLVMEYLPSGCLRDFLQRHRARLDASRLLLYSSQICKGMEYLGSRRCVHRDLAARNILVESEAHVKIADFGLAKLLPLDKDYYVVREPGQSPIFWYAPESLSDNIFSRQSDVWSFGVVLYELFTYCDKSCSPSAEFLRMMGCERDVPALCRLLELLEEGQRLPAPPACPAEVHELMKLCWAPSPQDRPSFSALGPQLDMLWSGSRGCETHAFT
Procedure, shortened: as §1

TYK2 = target: T4, TYK2 (Homo sapiens, UniProt P29597); test: TYK2 kinase assay (HTRF, inhibition of phosphorylation of a synthetic peptide); settings: catalytic domain aa 871-1187, GST-tag; 13 μM ATP (Km); read-out: TYK2 kinase inhibitory activity (EC50)
T4 construct: JAK1 (aa 850-1154) and TYK2 (aa 871-1187) are expressed with an N-terminally fused GST-tag; GST (N); purchased Carna Biosciences, Inc; host or cells: baculovirus expression system
T4 sequence (P29597 871-1187): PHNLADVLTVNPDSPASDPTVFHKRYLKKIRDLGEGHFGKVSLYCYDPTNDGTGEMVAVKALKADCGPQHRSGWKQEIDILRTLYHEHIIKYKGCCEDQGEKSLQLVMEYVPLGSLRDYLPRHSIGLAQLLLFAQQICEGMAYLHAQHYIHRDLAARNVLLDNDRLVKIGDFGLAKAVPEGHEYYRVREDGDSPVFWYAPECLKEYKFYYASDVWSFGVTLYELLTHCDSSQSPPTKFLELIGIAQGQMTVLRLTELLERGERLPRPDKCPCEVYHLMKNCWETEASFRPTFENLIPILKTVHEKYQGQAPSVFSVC
Procedure, shortened: as §1

`NS(=O)(=O)c1cccc(C(=O)N2CCN(c3ncnc4[nH]ccc34)CC3(CC3)C2)c1` [Example 73, 3-[5-(7H-pyrrolo[2,3-d]pyrimidin-4-yl)-5,8-diazaspiro[2.6]nonane-8-carbonyl]benzenesulfonamide] gave a pEC50 (JAK1) of 6.00 to 7.00, a pEC50 (JAK2) of 6.00 to 7.00 and a pEC50 (JAK3) of 6.00 to 7.00. For the same compound, the pEC50 (TYK2) was under 6.00.
With `COCCNS(=O)(=O)c1ccc(C(=O)N2CCN(c3ncnc4[nH]ccc34)CC3(CC3)C2)cc1` [Example 74, N-(2-methoxyethyl)-4-[5-(7H-pyrrolo[2,3-d]pyrimidin-4-yl)-5,8-diazaspiro[2.6]nonane-8-carbonyl]benzenesulfonamide] the pEC50 (JAK1) was 6.00 to 7.00, the pEC50 (JAK2) was 6.00 to 7.00 and the pEC50 (JAK3) was 6.00 to 7.00. It also gave a pEC50 (TYK2) of under 6.00.
`NS(=O)(=O)c1cc(C(=O)N2CCN(c3ncnc4[nH]ccc34)CC3(CC3)C2)cs1` [Example 75] was tested, and the pEC50 (JAK1) was over 7.00, the pEC50 (JAK2) was over 7.00 and the pEC50 (JAK3) was 6.00 to 7.00. The pEC50 (TYK2) was 6.00 to 7.00.
`NS(=O)(=O)c1ccc(CC(=O)N2CCN(c3ncnc4[nH]ccc34)CC3(CC3)C2)s1` [Example 76, 5-[2-oxo-2-[5-(7H-pyrrolo[2,3-d]pyrimidin-4-yl)-5,8-diazaspiro[2.6]nonan-8-yl]ethyl]thiophene-2-sulfonamide] gave a pEC50 (JAK1) of over 7.00, a pEC50 (JAK2) of over 7.00 and a pEC50 (JAK3) of over 7.00. For the same compound, the pEC50 (TYK2) was 6.00 to 7.00.
In the case of `O=C(Cc1ccc(-c2nn[nH]n2)cc1)N1CCN(c2ncnc3[nH]ccc23)CC2(CC2)C1` [Example 77, 1-[5-(7H-pyrrolo[2,3-d]pyrimidin-4-yl)-5,8-diazaspiro[2.6]nonan-8-yl]-2-[4-(2H-tetrazol-5-yl)phenyl]ethanone], the pEC50 (JAK1) was over 7.00, the pEC50 (JAK2) was over 7.00 and the pEC50 (JAK3) was 6.00 to 7.00. It also gave a pEC50 (TYK2) of 6.00 to 7.00.
In the case of `CCCc1csc(C(=O)N2CCN(c3ncnc4[nH]ccc34)CC3(CC3)C2)c1` [Example 78, (4-propyl-2-thienyl)-[5-(7H-pyrrolo[2,3-d]pyrimidin-4-yl)-5,8-diazaspiro[2.6]nonan-8-yl]methanone], the pEC50 (JAK1) was 6.00 to 7.00, the pEC50 (JAK2) was 6.00 to 7.00 and the pEC50 (JAK3) was 6.00 to 7.00. It also gave a pEC50 (TYK2) of under 6.00.
`Cc1cc(CC(=O)N2CCN(c3ncnc4[nH]ccc34)CC3(CC3)C2)no1` [Example 87, 2-(5-methylisoxazol-3-yl)-1-[5-(7H-pyrrolo[2,3-d]pyrimidin-4-yl)-5,8-diazaspiro[2.6]nonan-8-yl]ethanone] showed a pEC50 (JAK1) of over 7.00, a pEC50 (JAK2) of over 7.00 and a pEC50 (JAK3) of 6.00 to 7.00. For the same compound, the pEC50 (TYK2) was 6.00 to 7.00.
`O=C(Nc1ccccc1)N1CCCN(c2ncnc3[nH]ccc23)CC12CC2` [Example 90, N-phenyl-5-(7H-pyrrolo[2,3-d]pyrimidin-4-yl)-5,9-diazaspiro[2.6]nonane-9-carboxamide] showed a pEC50 (JAK1) of over 7.00, a pEC50 (JAK2) of 6.00 to 7.00 and a pEC50 (JAK3) of 6.00 to 7.00. For the same compound, the pEC50 (TYK2) was under 6.00.
`S=C(Nc1ccccc1)N1CCCN(c2ncnc3[nH]ccc23)CC12CC2` [Example 91, N-phenyl-5-(7H-pyrrolo[2,3-d]pyrimidin-4-yl)-5,9-diazaspiro[2.6]nonane-9-carbothioamide] was tested, and the pEC50 (JAK1) was over 7.00, the pEC50 (JAK2) was over 7.00 and the pEC50 (JAK3) was 6.00 to 7.00. For the same compound, the pEC50 (TYK2) was under 6.00.
In the case of `O=C(CC1CCCC1)N1CCCN(c2ncnc3[nH]ccc23)CC12CC2` [Example 92, 2-cyclopentyl-1-[5-(7H-pyrrolo[2,3-d]pyrimidin-4-yl)-5,9-diazaspiro[2.6]nonan-9-yl]ethanone], the pEC50 (JAK1) was over 7.00, the pEC50 (JAK2) was 6.00 to 7.00 and the pEC50 (JAK3) was 6.00 to 7.00. For the same compound, the pEC50 (TYK2) was under 6.00.
Compound `O=C(C1CCCCC1)N1CCCN(c2ncnc3[nH]ccc23)CC12CC2` [Example 93, cyclohexyl-[5-(7H-pyrrolo[2,3-d]pyrimidin-4-yl)-5,9-diazaspiro[2.6]nonan-9-yl]methanone] has a pEC50 (JAK1) of over 7.00, a pEC50 (JAK2) of over 7.00 and a pEC50 (JAK3) of 6.00 to 7.00. It also gave a pEC50 (TYK2) of 6.00 to 7.00.
Work on `Cc1ccc(S(=O)(=O)N2CCCN(c3ncnc4[nH]ccc34)CC23CC3)cc1` [Example 94, 4-[9-(p-tolylsulfonyl)-5,9-diazaspiro[2.6]nonan-5-yl]-7H-pyrrolo[2,3-d]pyrimidine] yielded a pEC50 (JAK1) of under 6.00, a pEC50 (JAK2) of under 6.00 and a pEC50 (JAK3) of under 6.00. The pEC50 (TYK2) was under 6.00.
Work on `S=C(CC1CCCC1)N1CCCN(c2ncnc3[nH]ccc23)CC12CC2` [Example 95, 2-cyclopentyl-1-[5-(7H-pyrrolo[2,3-d]pyrimidin-4-yl)-5,9-diazaspiro[2.6]nonan-9-yl]ethanethione] yielded a pEC50 (JAK1) of over 7.00, a pEC50 (JAK2) of 6.00 to 7.00 and a pEC50 (JAK3) of 6.00 to 7.00. It also gave a pEC50 (TYK2) of under 6.00.
Compound `CCCCS(=O)(=O)N1CCN(c2ncnc3[nH]ccc23)CC2(CC2)C1` [Example 97, 4-(8-butylsulfonyl-5,8-diazaspiro[2.6]nonan-5-yl)-7H-pyrrolo[2,3-d]pyrimidine] has a pEC50 (JAK1) of 6.00 to 7.00, a pEC50 (JAK2) of 6.00 to 7.00 and a pEC50 (JAK3) of under 6.00. It also gave a pEC50 (TYK2) of under 6.00.
Compound `Cc1ccc(S(=O)(=O)N2CC3(CC3)CN(c3ncnc4[nH]ccc34)CC2C)cc1` (stereo not shown) [Example 98, 4-[7-methyl-8-(p-tolylsulfonyl)-5,8-diazaspiro[2.6]nonan-5-yl]-7H-pyrrolo[2,3-d]pyrimidine] has a pEC50 (JAK1) of under 6.00, a pEC50 (JAK2) of under 6.00 and a pEC50 (JAK3) of under 6.00. It also gave a pEC50 (TYK2) of under 6.00.
Work on `CC1CN(c2ncnc3[nH]ccc23)CC2(CC2)CN1C(=O)Nc1ccccc1` (stereo not shown) [Example 99, 7-methyl-N-phenyl-5-(7H-pyrrolo[2,3-d]pyrimidin-4-yl)-5,8-diazaspiro[2.6]nonane-8-carboxamide] yielded a pEC50 (JAK1) of under 6.00, a pEC50 (JAK2) of under 6.00 and a pEC50 (JAK3) of under 6.00. For the same compound, the pEC50 (TYK2) was under 6.00.
For `N#Cc1ccc(C(=O)C(=O)N2CCN(c3ncnc4[nH]ccc34)CC3(CC3)C2)cc1` [Example 100, 4-[2-oxo-2-[5-(7H-pyrrolo[2,3-d]pyrimidin-4-yl)-5,8-diazaspiro[2.6]nonan-8-yl]acetyl]benzonitrile], the pEC50 (JAK1) was over 7.00, the pEC50 (JAK2) was over 7.00 and the pEC50 (JAK3) was under 6.00. It also gave a pEC50 (TYK2) of under 6.00.
`NS(=O)(=O)c1ccc2[nH]c(C(=O)N3CCN(c4ncnc5[nH]ccc45)CC4(CC4)C3)cc2c1` [Example 101, 2-[5-(7H-pyrrolo[2,3-d]pyrimidin-4-yl)-5,8-diazaspiro[2.6]nonane-8-carbonyl]-1H-indole-5-sulfonamide] was tested, and the pEC50 (JAK1) was over 7.00, the pEC50 (JAK2) was over 7.00 and the pEC50 (JAK3) was 6.00 to 7.00. It also gave a pEC50 (TYK2) of 6.00 to 7.00.
`CS(=O)(=O)Nc1ccc(C(=O)N2CCN(c3ncnc4[nH]ccc34)CC3(CC3)C2)cc1` [Example 102, N-[4-[5-(7H-pyrrolo[2,3-d]pyrimidin-4-yl)-5,8-diazaspiro[2.6]nonane-8-carbonyl]phenyl]methanesulfonamide] was tested, and the pEC50 (JAK1) was 6.00 to 7.00, the pEC50 (JAK2) was 6.00 to 7.00 and the pEC50 (JAK3) was 6.00 to 7.00. For the same compound, the pEC50 (TYK2) was under 6.00.
In the case of `CN(CCC#N)S(=O)(=O)N1CCN(c2ncnc3[nH]ccc23)CC2(CC2)C1` [Example 103, N-(2-cyanoethyl)-N-methyl-5-(7H-pyrrolo[2,3-d]pyrimidin-4-yl)-5,8-diazaspiro[2.6]nonane-8-sulfonamide], the pEC50 (JAK1) was 6.00 to 7.00, the pEC50 (JAK2) was 6.00 to 7.00 and the pEC50 (JAK3) was under 6.00. It also gave a pEC50 (TYK2) of under 6.00.
`CCN(CC)S(=O)(=O)N1CCN(c2ncnc3[nH]ccc23)CC2(CC2)C1` [Example 104, N,N-diethyl-5-(7H-pyrrolo[2,3-d]pyrimidin-4-yl)-5,8-diazaspiro[2.6]nonane-8-sulfonamide] showed a pEC50 (JAK1) of under 6.00, a pEC50 (JAK2) of 6.00 to 7.00 and a pEC50 (JAK3) of under 6.00. It also gave a pEC50 (TYK2) of under 6.00.
For `CN(C1CCCCC1)S(=O)(=O)N1CCN(c2ncnc3[nH]ccc23)CC2(CC2)C1` [Example 105, N-cyclohexyl-N-methyl-5-(7H-pyrrolo[2,3-d]pyrimidin-4-yl)-5,8-diazaspiro[2.6]nonane-8-sulfonamide], the pEC50 (JAK1) was 6.00 to 7.00, the pEC50 (JAK2) was 6.00 to 7.00 and the pEC50 (JAK3) was under 6.00. The pEC50 (TYK2) was under 6.00.
Work on `N#Cc1ccc(OCC(=O)N2CCN(c3ncnc4[nH]ccc34)CC3(CC3)C2)cc1` [Example 106, 4-[2-oxo-2-[5-(7H-pyrrolo[2,3-d]pyrimidin-4-yl)-5,8-diazaspiro[2.6]nonan-8-yl]ethoxy]benzonitrile] yielded a pEC50 (JAK1) of over 7.00, a pEC50 (JAK2) of over 7.00 and a pEC50 (JAK3) of 6.00 to 7.00. It also gave a pEC50 (TYK2) of 6.00 to 7.00.
In the case of `c1ccc(CN2CCN(c3ncnc4[nH]ccc34)CC3(CC3)C2)cc1` [Example 107, 4-(5-benzyl-5,8-diazaspiro[2.6]nonan-8-yl)-7H-pyrrolo[2,3-d]pyrimidine], the pEC50 (JAK1) was under 6.00, the pEC50 (JAK2) was under 6.00 and the pEC50 (JAK3) was under 6.00. For the same compound, the pEC50 (TYK2) was under 6.00.
For `N#Cc1ccc(CCC(=O)N2CCN(c3ncnc4[nH]ccc34)CC3(CC3)C2)cc1` [Example 115, 4-[3-oxo-3-[5-(7H-pyrrolo[2,3-d]pyrimidin-4-yl)-5,8-diazaspiro[2.6]nonan-8-yl]propyl]benzonitrile], the pEC50 (JAK1) was over 7.00, the pEC50 (JAK2) was over 7.00 and the pEC50 (JAK3) was over 7.00. The pEC50 (TYK2) was 6.00 to 7.00.
